Molecular target: T1, human brain neurotoxic esterase (Homo sapiens, UniProt Q8IY17)
T1 construct: from tissue; host or cells: human brain
T1 sequence (Q8IY17 1-1375): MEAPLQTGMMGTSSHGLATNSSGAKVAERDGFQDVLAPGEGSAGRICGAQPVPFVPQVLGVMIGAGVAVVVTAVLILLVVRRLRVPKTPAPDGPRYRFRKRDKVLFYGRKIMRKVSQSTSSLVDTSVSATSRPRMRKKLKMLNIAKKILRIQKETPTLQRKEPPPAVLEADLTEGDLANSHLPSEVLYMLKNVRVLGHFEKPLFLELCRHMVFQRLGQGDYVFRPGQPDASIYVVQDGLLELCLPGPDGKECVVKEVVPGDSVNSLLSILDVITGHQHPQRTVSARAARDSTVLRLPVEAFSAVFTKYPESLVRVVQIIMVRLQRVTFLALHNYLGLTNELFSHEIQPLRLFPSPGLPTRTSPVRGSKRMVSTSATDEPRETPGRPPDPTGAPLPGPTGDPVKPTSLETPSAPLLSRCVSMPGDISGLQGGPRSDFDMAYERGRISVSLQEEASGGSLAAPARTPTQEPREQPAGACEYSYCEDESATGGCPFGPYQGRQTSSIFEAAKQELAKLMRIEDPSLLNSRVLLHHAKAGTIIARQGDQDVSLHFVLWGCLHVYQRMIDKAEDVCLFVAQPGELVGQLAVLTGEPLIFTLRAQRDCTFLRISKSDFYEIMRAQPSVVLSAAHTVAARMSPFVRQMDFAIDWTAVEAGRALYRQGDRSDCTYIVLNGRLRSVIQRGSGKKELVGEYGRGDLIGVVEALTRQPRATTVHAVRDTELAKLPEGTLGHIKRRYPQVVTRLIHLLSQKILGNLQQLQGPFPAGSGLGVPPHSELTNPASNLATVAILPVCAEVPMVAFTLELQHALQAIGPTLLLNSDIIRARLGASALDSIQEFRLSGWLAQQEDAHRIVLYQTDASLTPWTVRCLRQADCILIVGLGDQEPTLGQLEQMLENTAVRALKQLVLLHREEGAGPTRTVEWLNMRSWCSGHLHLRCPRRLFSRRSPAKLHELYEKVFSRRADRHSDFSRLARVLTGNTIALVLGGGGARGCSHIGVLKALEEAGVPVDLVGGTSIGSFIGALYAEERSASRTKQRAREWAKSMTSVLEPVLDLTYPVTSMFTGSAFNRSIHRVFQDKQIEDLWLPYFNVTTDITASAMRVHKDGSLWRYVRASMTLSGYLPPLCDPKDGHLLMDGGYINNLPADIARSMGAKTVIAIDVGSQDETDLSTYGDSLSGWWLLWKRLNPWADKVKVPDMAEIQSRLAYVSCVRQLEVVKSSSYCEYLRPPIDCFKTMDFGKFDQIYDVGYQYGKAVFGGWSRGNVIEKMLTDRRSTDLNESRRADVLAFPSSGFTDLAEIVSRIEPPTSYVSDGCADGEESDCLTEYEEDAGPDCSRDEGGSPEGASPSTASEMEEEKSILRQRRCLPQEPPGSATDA
Assay: blocking of mepafox inhibition of neurotoxic esterase
Assay type: biochemical
Details: relative to the other compounds
From the text: The data in Table III were generated by determining what concentration of the various novel compounds were needed to block the inhibition of human brain neurotoxic esterase by a high concentration of mepafox.

SMILES: O=C(CSc1ccc(Oc2ccc(SCC(=O)C(F)(F)F)cc2)cc1)C(F)(F)F [Compound 35]
- potency in blocking neurotoxic esterase: most potent to date
